Results: publication PMC12680861, “Comparative analysis of LJ-4378 and tirzepatide in mouse models of obesity and weight regain” (Archives of Pharmacal Research, 2025)

How the values were obtained:
[1] = set-up: method as in Jastreboff et al. [2022]; Sattar et al. [2022]; settings: over 72 weeks; ref Jastreboff et al. [2022]; Sattar et al. [2022]; cited from earlier work
Plasma stability assay = type: in vitro ADME, mouse; settings: 37 °C, 30 min
Protocol: The plasma stability of LJ-4378 was evaluated using 100% plasma obtained from human (Biochemed, BC22089NCP, sodium citrate), rat (Innovative, IRT-N, sodium citrate), and mouse (Biochemed, 029-APSC-MP, sodium citrate). 10 Μm of LJ-4378 was added to the plasma, and samples were incubated at 37 °C for 0, 30, and 120 min. At each time point, an aliquot of the plasma was removed and mixed with acetonitrile containing the internal standard, chlorpropamide (TRC, C424800). […] The supernatant was injected into the LC–MS/MS system for quantification of the remaining compound. Analysis was performed using a Nexera XR system (Shimadzu, Japan) with a TSQ Vantage mass spectrometer (Thermo, USA). […] Data acquisition was conducted in MRM mode using Xcalibur software (version 4.4). All experiments were performed in duplicate with a deviation within 15%, and the percentage of compound remaining (% Remaining) at each time point was calculated relative to the non-incubated control sample. For quality control, procaine and enalapril (each at 10 μM) were used as reference compounds and were confirmed to fall within acceptable ranges.

CYP2D6 = CYP2D6 (Homo sapiens, UniProt P10635); settings: microsomes, 10 µM
Protocol: Cytochrome 450 (CYP) enzyme inhibition was evaluated using pooled human liver microsomes (Corning, #452117). […] Substrates and corresponding metabolites for each CYP isoform were as follows: phenacetin and acetaminophen for CYP1A2 (Sigma Aldrich, #77440 and A7085, respectively), diclofenac and 4'-hydroxydiclofenac for CYP2C9 (Sigma Aldrich, D6899; TRC, H825225), S-mephenytoin and 4'-hydroxymephenytoin for CYP2C19 (Sigma Aldrich, UC175; Santacruz, sc210197), dextromethorphan and dextrorphan for CYP2D6 (Sigma Aldrich, #81091 and UC205), and midazolam and 1'-hydroxymidazolam for CYP3A4 (KFDA; Sigma Aldrich, UC430).
Samples were preincubated at 37 °C for 5 min, and the reaction was initiated by the addition of the NADPH regeneration system, followed by incubation at 37 °C for 15 min. The reaction was terminated by adding acetonitrile containing the internal standard, and centrifuged at 15,000 rpm for 5 min at 4 °C. The supernatant was analyzed by LC–MS/MS using a Nexera XR system (Shimadzu, Japan) coupled with a TSQ Vantage mass spectrometer (Thermo, USA). […] Metabolites were quantified in multiple reaction monitoring (MRM) mode with Xcalibur software (version 4.4).
All experiments were performed in duplicate with variability ≤ 15%. The percent activity of each CYP enzyme was calculated based on metabolite formation relative to the no-inhibitor control.

plasma protein = assay: Plasma protein binding, Rapid Equilibrium Dialysis (RED); type: in vitro ADME, human; settings: 10 μM, 37 °C, 4 h
Protocol: The plasma protein binding of LJ-4378 was evaluated using the Rapid Equilibrium Dialysis (RED) method with 100% plasma from human (Biochemed, BC22089NCP), rat (Innovative, IRT-N), and mouse (Biochemed, 029-APSC-MP), all treated with sodium citrate as an anticoagulant. The RED device (ThermoFisher Scientific, #89809) and reusable base plate (ThermoFisher Scientific, #89811) were used with an 8 K MWCO membrane. Test compounds were added to plasma at a final concentration of 10 μM and dialyzed against phosphate-buffered saline (PBS, pH 7.4; Hyclone, #SH30256.01) at 37 °C for 4 h. After incubation, equal volumes of plasma and PBS samples were mixed with blank PBS and blank plasma, respectively, followed by the addition of acetonitrile containing chlorpropamide (TRC, C424800) as the internal standard. […] All measurements were performed in duplicate with a deviation of less than 15% between replicates. The free fraction (% Free) was calculated as (concentration in buffer chamber/concentration in plasma chamber) × 100, and the bound fraction (% Bound) was obtained by subtracting % Free from 100. In cases where measurements were unstable, deviations greater than 15% were allowed.

mice = assay: Serum markers of hepatic, renal and cardiac toxicity; type: in vivo; settings: 1 mg/kg, 2 weeks
Protocol: Serum aspartate aminotransferase (AST), alanine aminotransferase (ALT), blood urea nitrogen (BUN), Creatinine, Creatine kinase MB (CKMB), and lactate dehydrogenase (LDH) levels were analyzed with Fujifilm Dri-Chem 3500 s (Fujifilm, Kanagawa, Japan) according to the manufacturer’s instructions. The slides GOT/AST-P III, GPT/ALT-P III, BUN-P III, CRE-P III, CKMB-P, and LDH-P III were used.
a-f. Serum levels of aspartate transaminase (AST), alanine transaminase (ALT), blood urea nitrogen (BUN), creatinine, creatine kinase MB (CKMB), and lactate dehydrogenase (LDH) in 2 weeks of LJ-4378 (1mg/kg) treatment in mice. n = 3. Statistical significance was determined using an unpaired two-tailed t-test.

[2] = Tissue partition coefficient extrapolated from rat via plasma unbound fractions
Protocol: When calculating KP,T for LJ-4378 in […], Eq. (1) was used:1 KP,T=CT,ss/Cp,ss where CT,ss and Cp,ss represented the tissue and plasma concentrations at 270 min after the initiation of LJ-4378 infusion. In addition, under the free-drug hypothesis, the KP,T can be expressed as the ratio of the unbound fractions in plasma ( fup ) and tissue ( fu,T ) [Eq. (2)]. Given similar interspecies values of tissue unbound fraction (Poulin and Theil [2000]), the rat KP,T values were extrapolated to those in mice and humans using the following Eq. (3):2 KP,T=fup/fu,T 3 KP,T,extrapolated=KP,T,rat×fup/fup,rat

CYP2D6, sequence (P10635 whole entry, canonical isoform): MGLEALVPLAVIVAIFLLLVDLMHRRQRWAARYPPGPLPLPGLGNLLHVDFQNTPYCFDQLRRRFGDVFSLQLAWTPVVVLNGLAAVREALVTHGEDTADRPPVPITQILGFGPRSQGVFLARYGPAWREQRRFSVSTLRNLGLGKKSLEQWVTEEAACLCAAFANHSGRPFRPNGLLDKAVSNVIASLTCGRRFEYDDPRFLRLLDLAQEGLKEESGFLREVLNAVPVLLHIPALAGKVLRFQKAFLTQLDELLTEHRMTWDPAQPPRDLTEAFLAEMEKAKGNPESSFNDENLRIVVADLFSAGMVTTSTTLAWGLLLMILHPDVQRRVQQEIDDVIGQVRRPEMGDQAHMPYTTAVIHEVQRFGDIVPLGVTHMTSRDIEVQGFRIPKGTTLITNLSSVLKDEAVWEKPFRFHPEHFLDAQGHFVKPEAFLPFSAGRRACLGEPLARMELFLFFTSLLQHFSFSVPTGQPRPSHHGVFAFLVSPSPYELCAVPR

Compound | weight reductions in clinical studies [1] | % Remaining compound, Mouse plasma 30 min (Plasma stability assay) | % of control activity CYP2D6 (CYP2D6) | Plasma free fraction (% Free), Human (plasma protein) | hepatic, renal, and cardiac injury markers (AST, ALT, BUN, creatinine, CKMB, LDH) (mice) | Steady state tissue partition coefficient (KP,T), Adipose ([2]; Humans (extrapolated)) | Steady state tissue partition coefficient (KP,T), Brain ([2]; Humans (extrapolated)) | Steady state tissue partition coefficient (KP,T), Liver ([2]; Humans (extrapolated)) | Steady state tissue partition coefficient (KP,T), Lungs ([2]; Humans (extrapolated)) | Steady state tissue partition coefficient (KP,T), Adipose ([2]; Mice (extrapolated)) | Steady state tissue partition coefficient (KP,T), Brain ([2]; Mice (extrapolated)) | Steady state tissue partition coefficient (KP,T), Liver ([2]; Mice (extrapolated)) | Steady state tissue partition coefficient (KP,T), Lungs ([2]; Mice (extrapolated))
Tirzepatide [TZP, reference compound] | up to 22.5% | – | – | – | – | – | – | – | – | – | – | – | –
CCCCC#Cc1nc(N)c2ncn([C@@H]3SC[C@@H](O)[C@H]3O)c2n1 [LJ-4378] | – | 98.4% | 89.3% | 30.1% | no evidence of organ toxicity | 0.200 | 0.0443 | 1.04 | 0.540 | 0.197 | 0.0437 | 1.03 | 0.533
